Reference: PMC5075098, “Preclinical Evaluation of the Stability, Safety, and Efficacy of CD101, a Novel Echinocandin” (Antimicrobial Agents and Chemotherapy, 2016)
Converted amounts (≈) assume the structure as drawn. Read-outs that look alike come from different tables or passages of the source. Starred links: 1 amine or outer side, 2 acyl side, 3 side chain; linkers in the order of their positions; H or OH if unused. Positions of bridges follow the written chain, without caps; N, C: chain ends. Non-standard residues stand in square brackets, D forms with d. Residues, ends and D or L forms follow the SMILES beside them. *: point of attachment. pTerphenylCO(4''-OnC5H11) = CCCCCOc1ccc(-c2ccc(-c3ccc(C(=O)*)cc3)cc2)cc1; Orn(4R-OH,5R-OH) = O=C([C@H](C[C@@H](O)[C@@H](O)N[*:3])N[*:1])[*:2]; hTyr(3S-OH,4S-OH) = N[C@H](C(=O)O)[C@H](O)[C@@H](O)c1ccc(O)cc1; Pro(3S-OH,4S-Me) = C[C@H]1CN[C@H](C(=O)O)[C@H]1O; Hyp = O=C(O)[C@@H]1C[C@@H](O)CN1

Legend:
[1] = tested on: A. fumigatus (ATCC 13073); assay: Neutropenic mouse model of A. fumigatus infection, survival; details: BID for 5 days; CD101 all dose groups and anidulafungin 1 and 5 mg/kg i.v. (P < 0.05); amphotericin B 0.3 mg/kg i.p.
Method: Animals were immunosuppressed by three i.p. injections of cyclophosphamide (the first injection at 6 mg/mouse 3 days before inoculation and the second and third injections at 2 mg/mouse on 1 and 4 days after inoculation). […] Dose administration started 1 and 7 h after infection. […] An increase of 50% or more in the survival rate of the active groups compared to the vehicle group indicated significant antifungal efficacy.

[2] = tested on: C. albicans R303; assay: Neutropenic mouse model of C. albicans infection, kidney colony counts
Method: Immunosuppression was induced by two intraperitoneal (i.p.) injections of cyclophosphamide at 150 mg/kg 4 days before and 100 mg/kg 1 day before inoculation. […] The animals in the fluconazole group were sacrificed 48 h after infection.

[3] = tested on: C. albicans R303; assay: microbe, parasite or virus in culture; details: Candida albicans, R303, 24 h
Method: (§1) Enumeration of MIC and MEC assay inoculum viable counts was performed by plating aliquots of the starting assay inoculum on Sabouraud dextrose agar.

[4] = tested on: A. fumigatus (ATCC 13073); assay: MEC/MIC, CLSI broth microdilution; details: 24 h at 35°C, rounded/compact hyphal morphology
Method: as §1

[5] = Plasma protein binding, ultracentrifugation; type: in vitro ADME; details: human, ∼500,000 × g 2.5 h at 37°C, LC-MS/MS, SEM, read-out: % of protein bound (SEM) (converted)
Method: Ultracentrifugation ([15]) was used to compare human plasma protein binding of CD101 and anidulafungin. […] Following ultracentrifugation, the supernatant was transferred to a microtiter plate containing 50 μl plasma for matrix-matching purposes and quenched with 400 μl of cold acetonitrile (ACN) with 0.1% formic acid containing diclofenac as an internal standard. Quenched samples were centrifuged for 5 min at 10°C (e.g., 3,100 rpm [2,000 × g]) to sediment the precipitated proteins, and 50 μl supernatant was transferred to a microtiter plate containing 100 μl of water prior to analysis by LC-MS/MS. The percentage bound was the difference between 100% and the percentage free (the ratio of the concentration in supernatant to the total concentration).

[6] = 2-week repeat-dose toxicity and hepatotoxicity screening; type: in vivo, Sprague-Dawley rats
Method: Dosing solutions were prepared in a vehicle comprising 5% mannitol containing 2.5% polysorbate 80 (Tween 80) in 0.3% acetic acid.
Animals were randomly assigned to dose groups and stratified by weight to achieve similar group mean body weights (males, 255 to 318 g; females, 192 to 215 g). Blood, urine, and liver samples (excised and preserved in 10% neutral buffered formalin) were obtained on day 15. Plasma liver enzyme levels were assessed. Liver tissues were processed to paraffin blocks and prepared for slides. Slides were stained with hematoxylin and eosin. Hematology data were collected using the Advia 120 hematology analyzer. Coagulation data were collected using the Diagnostica STA compact coagulation analyzer. Clinical chemistry data were collected using the AU400 chemistry analyzer. Qualitative and quantitative urinalysis was recorded using iRICELL 1500 UA analyzer. Clinical effects were assessed for determination of the maximum tolerated dose (MTD).
Statistical evaluations were performed on in-life and clinical pathology numerical data to determine statistical significance following a decision tree. First, the homogeneity of the data was determined by Bartlett's test. If the data were homogeneous, a one-way analysis of variance was performed to assess statistical significance. If statistically significant differences between the means were found, Dunnett's test was used to determine the degree of significance from the control means (P < 0.05, P < 0.01, and P < 0.001). If the data were nonhomogeneous, the Kruskal-Wallis nonparametric analysis was performed to assess statistical significance. If statistically significant differences between the means were found (P < 0.05, P < 0.01, and P < 0.001), the Mann-Whitney U test was used to determine the degree of significance from the control means (P < 0.05, P < 0.01, and P < 0.001).

[7] = Reactive metabolite screening (glutathione trapping); type: in vitro ADME; details: PBS pH 7.4, excess GSH, 37°C, LC with high-resolution MS
Method: Samples were diluted to 10 μg/ml into 50:50 acetonitrile-water with 0.1 formic acid. Samples were analyzed by LC (Agilent 1100) with high-resolution MS (Waters quadrupole time of flight [Q-TOF] Premier mass spectrometer with electrospray interface) with concurrent low- and high-energy scans to obtain full-scan parent and product fragment ions. The analytical column was a Phenomenex Kinetex (2.6-μm C18, 100 by 3.0 mm). Waters MassLynx 4.1 software was used for data analysis.

[8] = tested on: C. albicans R303; details: CLSI broth microdilution, read after 24 h at 35°C, prominent growth inhibition (∼50%)
Method: as §1

[9] = after 44 h; cited from earlier work
From the text: CD101, a novel echinocandin being developed as a high-exposure, once-weekly intravenous (i.v.) formulation for the treatment and prevention of systemic fungal infections, was designed to be chemically and metabolically stable to avoid hepatotoxicity while retaining the antifungal activity of an echinocandin.

[10] = anidulafungin 40 mg/kg/day i.v. 14 days, rats, relative to controls, P ≤ 0.001
[11] = anidulafungin 40 mg/kg/day i.v. 14 days, rats, P ≤ 0.001
[12] = anidulafungin 40 mg/kg/day i.v. 14 days, rats, P ≤ 0.01

SMILES: C[C@@H]1[C@H](O)[C@@H](C)/C=C/C=C/C=C/C=C/C=C/C=C/C=C/[C@H](O[C@@H]2O[C@H](C)[C@@H](O)[C@H](N)[C@@H]2O)C[C@@H]2O[C@](O)(C[C@@H](O)C[C@@H](O)[C@H](O)CC[C@@H](O)C[C@@H](O)CC(=O)O[C@H]1C)C[C@H](O)[C@H]2C(=O)O [amphotericin B, reference compound]
- 10-day survival rate compared to the vehicle group [1]: significant increase

SMILES: OC(Cn1cncn1)(Cn1cncn1)c1ccc(F)cc1F [fluconazole, reference compound]
- reduction in CFU per gram of paired kidneys relative to vehicle ([2]; 20 mg/kg oral, 2 h after infection, 48 h): 87%
- log reduction in CFU per gram relative to vehicle ([2]; 20 mg/kg oral, 48 h): 1.1 log
- MIC [3]: 2 µg/mL (≈ 6.53 µM)

SMILES: CCCCCOc1ccc(-c2ccc(-c3ccc(C(=O)N[C@H]4C[C@@H](O)[C@@H](O)NC(=O)[C@@H]5[C@@H](O)[C@@H](C)CN5C(=O)[C@H]([C@@H](C)O)NC(=O)[C@H]([C@H](O)[C@@H](O)c5ccc(O)cc5)NC(=O)[C@@H]5C[C@@H](O)CN5C(=O)[C@H]([C@@H](C)O)NC4=O)cc3)cc2)cc1 [anidulafungin] ({pTerphenylCO(4''-OnC5H11)}-[Orn(4R-OH,5R-OH)]T[Hyp][hTyr(3S-OH,4S-OH)]T[Pro(3S-OH,4S-Me)]; lactam 1-C)
- MEC [4]: 0.004 µg/mL
- log reduction in CFU per gram relative to vehicle ([2]; 0.6 mg/kg single i.v. dose, 24, 48, 72 h): up to 2.7 log
- antimicrobial effect (≥99%, 2-log reduction in CFU per gram) ([2]; anidulafungin 0.6 mg/kg i.v., at 24 and 48 h): significant
- fraction unbound ([5]; 1 μg/ml): 0.022
- fraction unbound ([5]; 5 μg/ml): 0.014
- repeat-dose systemic or target organ toxicity ([6]; 14-day i.v. infusion, rats, CD101 20 mg/kg/day, anidulafungin 40 mg/kg/day (comparable exposure)): severe hemolytic anemia and liver toxicity
- spleen finding upon necropsy ([6]; anidulafungin 40 mg/kg/day i.v. 14 days, rats): dark and enlarged spleens
- increase in mean alkaline phosphatase (ALP) [6, 10]: up to 47%
- increase in mean aspartate aminotransferase (AST) [6, 10]: up to 68%
- increase in total bilirubin [6, 10]: up to 2 fold
- increase in mean alanine transaminase (ALT) ([6]; anidulafungin 40 mg/kg/day i.v. 14 days, rats, relative to controls, P ≤ 0.05): up to 27%
- decrease in the albumin/globulin ratio [6, 11]: up to 15%
- increases in platelets [6, 11]: up to 44%
- increases in reticulocyte (polychromasia), neutrophil, and eosinophil counts [6, 11]: up to 4 fold
- decreases in activated partial thromboplastin time [6, 12]: up to 23%
- decreases in red blood cells (RBC), hemoglobin, and hematocrit [6, 12]: up to 19%
- increases in globulin [6, 12]: up to 19%
- increases in serum cholesterol [6, 12]: up to 52%
- reduced body weights and food consumption, decrease relative to controls ([6]; anidulafungin 40 mg/kg/day i.v. infusion 14 days, rats, P ≤ 0.05): up to 9%
- microscopic changes in the liver ([6]; day 15, H&E, CD101 2, 6, or 20 mg/kg/day, anidulafungin 40 mg/kg/day (some of the females)): minimal to moderate single-cell necrosis affecting the hepatocytes
- 10-day survival rate compared to the vehicle group [1]: significant increase
- GSH adduct formation (reactive intermediate) [7]: did form a GSH adduct
- MIC [8]: 0.03 µg/mL (≈ 0.0263 µM)
- % remaining in human plasma [9]: 7%
